Data taken from patent US9018208B2, “Heterocycles as potassium channel modulators” (Icagen Inc., priority 2007, dated 2015).

Test system: SH-SY5Y M-currents (KCNQ2, KCNQ3 and KCNQ5)
Experiment: SH-SY5Y native cell line FLIPR assay (voltage-sensitive dye DiBAC)
Assay type: cell-based, mouse neuroblastoma, rat glioma hybrid cell line
Settings: FLIPR assay, SH-SY5Y native cell line; Table 2; read-out: SH-SY5Y EC50
Summary of the method: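 Response is peak DiBAC fluorescence change, normalised to the maximum from a positive control agent, sampled every 30 s over 25 min. Before compound addition, SH-SY5Y cells differentiated with PGE1 plus isomethylbutylxanthine were dye-loaded for 1 h in EBSS with […] DiBAC.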

Structure (SMILES)	EC50 [nM]
CC(C)C(C)C(=O)Nc1nc2ccc(F)cn2c1-c1ccc(F)cc1 (stereo not shown) [Compound 162, N-(6-fluoro-3(4-fluorophenyl)imidazo[1,2-a]pyridin-2-yl)-2,3-dimethylbutanamide]	500 to 3000
CC(C)(C)CC(=O)Nc1nc2ccc(F)cn2c1-c1cccc(C(F)(F)F)c1 [Compound 163, N-(6-fluoro-3-(3-(trifluoromethyl)phenyl)imidazo[1,2-a]pyridin-2-yl)-3,3-dimethylbutanamide]	< 500
O=C(Cc1ccc(F)cc1)Nc1nc2ccc(F)cn2c1-c1cccc(C(F)(F)F)c1 [Compound 164, N-(6-fluoro-3-(3-(trifluoromethyl)phenyl)imidazo[1,2-a]pyridin-2-yl)-2-(4-fluorophenyl)acetamide]	< 500
O=C(Cc1ccccc1)Nc1nc2ccc(F)cn2c1-c1cccc(C(F)(F)F)c1 [Compound 165, N-(6-fluoro-3-(3-(trifluoromethyl)phenyl)imidazo[1,2-a]pyridin-2-yl)-2-phenylacetamide]	< 500
Cc1ccc2nc(NC(=O)Cc3ccccc3)c(-c3ccc(F)cc3)n2c1 [Compound 166, N-(3-(4-fluorophenyl)-6-methylimidazo[1,2-a]pyridin-2-yl)-2-phenylacetamide]	< 500
Cc1ccc2nc(NC(=O)CC(C)(C)C)c(-c3ccc(F)cc3)n2c1 [Compound 167, N-(3-(4-fluorophenyl)-6-methylimidazo[1,2-a]pyridin-2-yl)-3,3-dimethylbutanamide]	< 500
Cc1ccn2c(-c3ccc(F)cc3)c(NC(=O)Cc3ccccc3)nc2c1 [Compound 168, N-(3-(4-fluorophenyl)-7-methylimidazo[1,2-a]pyridin-2-yl)-2-phenylacetamide]	< 500
Cc1ccn2c(-c3ccc(F)cc3)c(NC(=O)CC(C)(C)C)nc2c1 [Compound 169, N-(3-(4-fluorophenyl)-7-methylimidazo[1,2-a]pyridin-2-yl)-3,3-dimethylbutanamide]	< 500
O=C(CC1CCCC1)Nc1nc2ccc(F)cn2c1-c1ccc(OC(F)(F)F)cc1 [Compound 170, 2-cyclopentyl-N-(6-fluoro-3-(4-(trifluoromethoxy)phenyl)imidazo[1,2-a]pyridin-2-yl)acetamide]	< 500
O=C(CC1CC1)Nc1nc2ccc(F)cn2c1-c1ccc(OC(F)(F)F)cc1 [Compound 171, 2-cyclopropyl-N-(6-fluoro-3-(4-(trifluoromethoxy)phenyl)imidazo[1,2-a]pyridin-2-yl)acetamide]	500 to 3000
O=C(CCC1CC1)Nc1nc2ccc(F)cn2c1-c1ccc(OC(F)(F)F)cc1 [Compound 172, 3-cyclopropyl-N-(6-fluoro-3-(4-(trifluoromethoxy)phenyl)imidazo[1,2-a]pyridin-2-yl)propanamide]	500 to 3000
O=C(CCC(F)(F)F)Nc1nc2ccc(F)cn2c1-c1ccc(OC(F)(F)F)cc1 [Compound 173, 4,4,4-trifluoro-N-(6-fluoro-3-(4-(trifluoromethoxy)phenyl)imidazo[1,2-a]pyridin-2-yl)butanamide]	500 to 3000
O=C(CCCC(F)(F)F)Nc1nc2ccc(F)cn2c1-c1ccc(OC(F)(F)F)cc1 [Compound 174, 5,5,5-trifluoro-N-(6-fluoro-3-(4-(trifluoromethoxy)phenyl)imidazo[1,2-a]pyridin-2-yl)pentanamide]	< 500
CC(C)(C)CC(=O)Nc1nc2ccc(F)cn2c1-c1ccc(C(C)(C)C#N)cc1 [Compound 175, N-(3-(4-(2-cyanopropan-2-yl)phenyl)-6-fluoroimidazo[1,2-a]pyridin-2-yl)-3,3-dimethylbutanamide]	500 to 3000
CC(C)(C)CC(=O)Nc1nc2ccc(F)cn2c1-c1cccc(C(C)(C)C#N)c1 [Compound 176, N-(3-(3-(2-cyanopropan-2-yl)phenyl)-6-fluoroimidazo[1,2-a]pyridin-2-yl)-3,3-dimethylbutanamide]	500 to 3000
CC(C)(C)CC(=O)Nc1nc2ccc(F)cn2c1-c1ccc(C#N)cc1 [Compound 177, N-(3-(4-cyanophenyl)-6-fluoroimidazo[1,2-a]pyridin-2-yl)-3,3-dimethylbutanamide]	500 to 3000
